In PMC5618506, “CCR7 Sulfotyrosine Enhances CCL21 Binding” (International Journal of Molecular Sciences, 2017):
Non-standard residues stand in square brackets, D forms with d. Residues, ends and D or L forms follow the SMILES beside them. No end group written: not given here. sY = N[C@@H](Cc1ccc(OS(=O)(=O)O)cc1)C(=O)O; pY = N[C@@H](Cc1ccc(OP(=O)(O)O)cc1)C(=O)O

T1: CCL21 (Homo sapiens, UniProt O00585)
T1 construct: Our previous NMR studies defined the 3D structure of full-length CCL21; made in house
T1 sequence (O00585 24-134): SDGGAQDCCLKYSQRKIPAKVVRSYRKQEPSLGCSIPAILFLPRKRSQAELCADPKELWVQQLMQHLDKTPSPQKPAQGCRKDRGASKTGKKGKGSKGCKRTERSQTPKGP

T2: CCR7 5–11 sY8 (Homo sapiens, N-terminus assumed; SMILES CC[C@H](C)[C@H](NC(=O)[C@H](Cc1ccc(OS(=O)(=O)O)cc1)NC(=O)[C@H](CC(=O)O)NC(=O)[C@H](CC(=O)O)NC(=O)[C@@H](N)[C@@H](C)O)C(=O)NCC(=O)N[C@@H](CC(=O)O)C(N)=O)
T2 chain: TDD[sY]IGD-NH2

T3: CCR7 5–11 (Homo sapiens)
T3 chain: TDDYIGD-NH2

T4: CCR7 5–11 pY8 (Homo sapiens, N-terminus assumed; SMILES CC[C@H](C)[C@H](NC(=O)[C@H](Cc1ccc(OP(=O)(O)O)cc1)NC(=O)[C@H](CC(=O)O)NC(=O)[C@H](CC(=O)O)NC(=O)[C@@H](N)[C@@H](C)O)C(=O)NCC(=O)N[C@@H](CC(=O)O)C(N)=O)
T4 chain: TDD[pY]IGD-NH2


Tests used:
CCL21 = biological target: T1, CCL21; experiment: 15N-1H HSQC NMR titration of U-15N CCL21 with CCR7 N-terminal peptides; Kd by nonlinear fitting of chemical shift perturbations; format: binding; details: for Kd: 100 μM U-15N CCL21 titrated with peptide, NMR buffer 25 mM deuterated MES, 10% D2O, 0.2% NaN3, pH 6.0, 25 °C, fit of all CCL21 residues with significant chemical shift perturbations (11–30 sY17: only residues that did not broaden beyond detection), ± CI at 95% confidence level; for Kd, CCL21 K69 only (representative residue): nonlinear fitting of combined amide chemical shift perturbations of CCL21 residue K69 versus peptide concentration, 100 μM U-15N CCL21, pH 6.0, 25 °C
Procedure: NMR spectroscopic data were collected at the NMR facility at the Medical College of Wisconsin on a Bruker Avance 600 MHz spectrometer equipped with ^1H/^13C/^15N Cryoprobe® at 25 °C. Chemical shift assignments for CCR7 1–30 C24A (H, N, C, C^α, and most side chain carbons) were determined by standard techniques using 1.05 mM U-^15N/^13C labeled CCR7 1–30 C24A in NMR buffer (25 mM deuterated MES, 10% D2O, 0.2% NaN3, pH 6.0). To determine CCR7 N-terminal residues likely involved in CCL21 binding, 200 μM U-^15N/^13C CCR7 1–30 C24A in NMR buffer was monitored using ^15N-^1H HSQC spectra while titrating with increasing CCL21 concentrations (molar ratios of 1:0, 1:0.25, 1:0.5, 1:0.75, 1:1, 1:1.5, 1:2 and 1:2.5 of CCR7:CCL21).
To identify the impact of CCR7 tyrosine modification on CCL21 binding, 100 μM of U-^15N CCL21 in NMR buffer was titrated with increasing concentrations of the indicated CCR7 peptides and monitored using ^15N-^1H HSQC spectra, as previously described. […] Combined amide chemical shift perturbations (Δδ) were computed as [(5ΔδH)^2+(ΔδN)^2]^1/2, where ΔδH and ΔδN are the changes in backbone amide ^1H and ^15N chemical shifts in ppm, respectively. Dose-dependent changes in chemical shift perturbations upon titration with the various CCR7 peptides were used to determine dissociation constant (Kd) values through nonlinear fitting to an equation that takes into account ligand depletion, as previously described.

CCR7 5–11 sY8 = biological target: T2, CCR7 5–11 sY8; experiment: NMR
CCR7 5–11 = biological target: T3, CCR7 5–11; experiment: NMR
CCR7 5–11 pY8 = biological target: T4, CCR7 5–11 pY8; experiment: NMR

| Molecule | Kd (CCL21) | further results |
| --- | --- | --- |
| CC[C@H](C)[C@H](NC(=O)[C@H](Cc1ccc(OP(=O)(O)O)cc1)NC(=O)[C@H](CC(=O)O)NC(=O)[C@H](CC(=O)O)NC(=O)[C@@H](N)[C@@H](C)O)C(=O)NCC(=O)N[C@@H](CC(=O)O)C(N)=O [CCR7 5–11 pY8] (H-TDD[pY]IGD-NH2) | 240 ± 60 µM | – |
| CC(C)C[C@H](NC(=O)[C@H](CO)NC(=O)[C@H](CCC(=O)O)NC(=O)[C@H](Cc1ccccc1)NC(=O)[C@H](CC(C)C)NC(=O)[C@@H](NC(=O)[C@H](Cc1ccc(OP(=O)(O)O)cc1)NC(=O)[C@H](CC(=O)O)NC(=O)[C@@H](NC(=O)[C@@H](NC(=O)[C@@H](NC(=O)[C@H](CC(N)=O)NC(=O)[C@@H](N)CC(=O)O)[C@@H](C)O)[C@@H](C)O)C(C)C)[C@@H](C)O)C(=O)N[C@@H](C)C(=O)N[C@@H](CO)C(=O)N[C@@H](CCCCN)C(=O)N[C@@H](CCCCN)C(=O)N[C@@H](CC(=O)O)C(=O)N[C@H](C(=O)N[C@@H](CCCNC(=N)N)C(N)=O)C(C)C [CCR7 11–30 pY17] (H-DNTTVD[pY]TLFESLASKKDVR-NH2) | 1700 µM | – |
| CCL21 (protein) SDGGAQDCCLKYSQRKIPAKVVRSYRKQEPSLGCSIPAILFLPRKRSQAELCADPKELWVQQLMQHLDKTPSPQKPAQGCRKDRGASKTGKKGKGSKGCKRTERSQTPKGP | – | Kd (CCR7 5–11 sY8): 140 µM; Kd (CCR7 5–11): 700 µM; Kd (CCR7 5–11 pY8): 240 µM |

Continued by falling Kd (CCL21), values first:

| Kd (CCL21) | Molecule | further results |
| --- | --- | --- |
| 6800 µM | DNTTVDYTLFESLASKKDVR-NH2 [CCR7 11–30] | – |
| 700 ± 300 µM | TDDYIGD-NH2 [CCR7 5–11] | Kd, CCL21 K69 only (representative residue) (CCL21): 530 ± 40 µM |
| 480 ± 70 µM | CC(C)C[C@H](NC(=O)[C@H](CO)NC(=O)[C@H](CCC(=O)O)NC(=O)[C@H](Cc1ccccc1)NC(=O)[C@H](CC(C)C)NC(=O)[C@@H](NC(=O)[C@H](Cc1ccc(OS(=O)(=O)O)cc1)NC(=O)[C@H](CC(=O)O)NC(=O)[C@@H](NC(=O)[C@@H](NC(=O)[C@@H](NC(=O)[C@H](CC(N)=O)NC(=O)[C@@H](N)CC(=O)O)[C@@H](C)O)[C@@H](C)O)C(C)C)[C@@H](C)O)C(=O)N[C@@H](C)C(=O)N[C@@H](CO)C(=O)N[C@@H](CCCCN)C(=O)N[C@@H](CCCCN)C(=O)N[C@@H](CC(=O)O)C(=O)N[C@H](C(=O)N[C@@H](CCCNC(=N)N)C(N)=O)C(C)C [CCR7 11–30 sY17] (H-DNTTVD[sY]TLFESLASKKDVR-NH2) | – |
| 140 ± 40 µM | CC[C@H](C)[C@H](NC(=O)[C@H](Cc1ccc(OS(=O)(=O)O)cc1)NC(=O)[C@H](CC(=O)O)NC(=O)[C@H](CC(=O)O)NC(=O)[C@@H](N)[C@@H](C)O)C(=O)NCC(=O)N[C@@H](CC(=O)O)C(N)=O [CCR7 5–11 sY8] (H-TDD[sY]IGD-NH2) | Kd, CCL21 K69 only (representative residue) (CCL21): 180 ± 40 µM |
